In ChEMBL document CHEMBL1157158, “Synthesis and neuropharmacological evaluation of 2-aryl- and alkylapomorphines” (Bioorg Med Chem, 2008):
pIC50, pKi: −log10 of the molar value.

Experiments:
[1] = target: D(3) dopamine receptor (Rattus norvegicus, UniProt P19020); experiment: biochemical
Description: Displacement of [3H]spiperone from rat recombinant dopamine D3 receptor expressed in SF9 cells

[2] = system: Mus musculus; experiment: Dopaminergic activity in CD1 mouse striatum assessed as dopamine turn over at 3.29 umol/kg, sc relative to control; format: functional
[3] = target: D(2) dopamine receptor (Rattus norvegicus, UniProt P61169); experiment: Displacement of [3H]spiperone from rat dopamine D2 receptor in brain striatal membrane; format: cell membranes
[4] = system: Mus musculus; experiment: Dopaminergic activity in CD1 mouse tuberculum olfactorium assessed as dopamine turn over at 3.29 umol/kg, sc relative to control; format: functional

D(3) dopamine receptor, sequence (P19020 whole entry): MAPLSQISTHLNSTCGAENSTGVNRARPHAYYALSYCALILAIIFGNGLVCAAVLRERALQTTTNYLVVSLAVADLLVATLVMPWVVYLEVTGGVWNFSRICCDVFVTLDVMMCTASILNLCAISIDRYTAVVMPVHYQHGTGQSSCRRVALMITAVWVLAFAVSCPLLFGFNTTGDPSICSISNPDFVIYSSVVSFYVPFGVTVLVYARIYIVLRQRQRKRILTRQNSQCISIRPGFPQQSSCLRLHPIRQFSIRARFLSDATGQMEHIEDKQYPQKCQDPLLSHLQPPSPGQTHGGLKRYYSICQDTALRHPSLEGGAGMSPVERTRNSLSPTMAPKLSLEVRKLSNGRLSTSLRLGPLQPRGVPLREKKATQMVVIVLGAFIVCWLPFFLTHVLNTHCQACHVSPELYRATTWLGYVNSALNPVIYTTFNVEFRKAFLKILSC
D(2) dopamine receptor, sequence (P61169 whole entry): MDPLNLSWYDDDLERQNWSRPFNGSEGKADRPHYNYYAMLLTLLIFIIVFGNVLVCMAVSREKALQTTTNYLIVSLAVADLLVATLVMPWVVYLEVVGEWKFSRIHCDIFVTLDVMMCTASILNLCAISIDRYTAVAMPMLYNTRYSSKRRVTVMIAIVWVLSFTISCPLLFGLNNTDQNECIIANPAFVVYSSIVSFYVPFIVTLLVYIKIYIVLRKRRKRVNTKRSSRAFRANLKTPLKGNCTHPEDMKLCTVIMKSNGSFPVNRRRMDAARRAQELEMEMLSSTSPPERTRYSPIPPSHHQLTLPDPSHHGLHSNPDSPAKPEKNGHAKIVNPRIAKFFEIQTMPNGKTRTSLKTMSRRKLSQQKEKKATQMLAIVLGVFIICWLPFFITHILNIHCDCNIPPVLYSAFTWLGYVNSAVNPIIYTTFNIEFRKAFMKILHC

| Structure (SMILES) | pIC50 [1] | pKi [1] | Activity [2] [%] | pIC50 [3] | pKi [3] | Activity [4] [%] |
| --- | --- | --- | --- | --- | --- | --- |
| CN(C)c1ccc(-c2cc3c4c(c2)-c2c(ccc(O)c2O)C[C@H]4N(C)CC3)cc1.Cl.Cl | 6.75 | 7.11 | 52.3 | 6.32 | 6.62 | 84.5 |
| CN1CCc2cc(-c3ccccc3)cc3c2[C@H]1Cc1ccc(O)c(O)c1-3.Cl | 7.83 | 8.11 | 44.2 | 7.63 | 7.93 | 50.9 |
| CN1CCc2cc(-c3ccc(O)cc3)cc3c2[C@H]1Cc1ccc(O)c(O)c1-3.Cl | 8.43 | 8.75 | 43.6 | 8.07 | 8.38 | 39.6 |
| CN1CCc2cc(-c3cccc4c3oc3ccccc34)cc3c2[C@H]1Cc1ccc(O)c(O)c1-3.Cl | 7.31 | 7.65 | 92 | 5.49 | 5.79 | 106.1 |
| Cc1cc2c3c(c1)-c1c(ccc(O)c1O)C[C@H]3N(C)CC2.Cl | 7.08 | 7.40 | 42.3 | 7.37 | 7.68 | 43.6 |
| CN1CCc2cccc3c2[C@H]1Cc1ccc(O)c(O)c1-3.CN1CCc2cccc3c2[C@H]1Cc1ccc(O)c(O)c1-3.Cl.Cl.O [APOMORPHINE HYDROCHLORIDE] | – | – | 48.6 | – | – | 57.7 |
